Experimental data: US11530246B2, “Regulated synthetic gene expression systems” (TRUSTEES OF BOSTON UNIVERSITY, priority 2019, dated 2022)
“Also recorded” adds a separate entry of the source. Each block holds one compound with its values, some of them ahead of it.

Experiments:
ZF-responsive promoter [1] = assay: ABA-inducible transcriptional activation of a fluorescent protein using ABI/PYL domains, Jurkat; type: cell-based, human
From the text: ABI/PYL induced proximity domains that are responsive to a small molecule (abscisic acid=ABA) can be used to regulate a synTF as described herein (see e.g., Liang et al. Sci Signal, 2011). The ABA-insensitive 1 (ABI1) and PYR1-like (PYL) domains originating form Arabidopsis thaliana have complementary surfaces that can conditionally interact when coordinated by the small molecule abscisic acid (ABA). ABA is a plant hormone that is naturally present at low levels within the human diet, and is subsequently presumed to be a safe small molecule for human administration.
Subsequently, the administration of ABA can allow conditional dimerization between the ABI1 and PYL subunits, allowing the ZF and effector domains to remain locally coupled and retaining synTF functionality (see e.g., FIG. 3).
Output fluorescence was measured as a function of several different ABA treatment concentrations as indicated (dose response; see e.g., FIG. 7A).

ZF-responsive promoter [2] = assay: Small molecule inducible synTF activation of fluorescent reporter in HEK293 and Jurkat cell lines; type: cell-based, human; conditions: both HEK293 and Jurkat cell lines; compared to untreated
From the text: Output fluorescence as a function of several different small molecule (e.g., ABA, 4OHT, or grazoprevir) treatment concentrations is also indicated here.
Inducible synTFs were first characterized using GFP (or another detectable marker such as mCherry) as the reporter. The whole system was introduced into Jurkat T cells via lentiviral transduction with multiplicity of infection of 25 to ensure high efficiency, quantifying viral copy number (VCN) with qPCR. To characterize the inducible synTF controllers, cells at 5×10^4 cells each in 96-well plates were inoculated with lentivirus, and eight different drug concentrations were added spanning three orders of magnitude (e.g., GZV 0-10 μM, 4OHT 0-1 μM), and GFP expression levels can be quantified with flow cytometry (see e.g., FIG. 10A-10D). Gene expression levels can be normalized to VCN. From these dose-responses, the dynamic range and threshold of activation can be defined. Since the single vector design can lack a selection marker, transduction efficiency was assumed to be equal to the percentage of GFP positive cells after induction by 4OHT or GZV.
Tunable gene activation was achieved using small molecule inducible synTFs. Inducibility profiles were determined for each of the three inducible synTF activators, in both HEK293 and Jurkat cell lines. The reporter expression was evaluated across time and varying drug concentrations. Day 4 represented the highest levels of expression that were assayed, indicating strong inducible expression in drug-treated lines relative to untreated cell lines (see e.g., FIG. 10A-10D).

ZF-responsive promoter [3] = assay: Inducible synthetic transcriptional repression of a fluorescent protein, HEK293; type: cell-based, human; conditions: compared to untreated
Method: Tunable gene silencing can also be achieved using small molecule inducible synTFs. Inducible synTFs were engineered that were capable of repressing gene expression. The responsive promoter was modified to constitutively express a fluorescent output. The p65 activation domain was replaced with a KRAB repression domain (human-derived silencer), and the same ZF-drug pairs were utilized as the synTF activators. Inducibility profiles were determined for each of the three inducible synTF repressors in HEK cell lines, and there was strong silencing of reporter expression over time in drug-treated lines relative to untreated cell lines (see e.g., FIG. 11A-11B, 12A-12C).

ZF-responsive promoter [4] = assay: Grazoprevir-inducible transcriptional activation of a fluorescent protein using NS3, Jurkat; type: cell-based, human
From the text: Non-structural protein 3 (NS3) domain can be used for small molecule regulated control over synTF activity (see e.g., Lin et al. PNAS (2008)). The non-structural protein 3 (NS3) is a serine protease originating from the hepatitis C virus and is naturally capable of self-excision from expressed proteins.
Subsequently, the administration of one of these small molecules—e.g. grazoprevir—can prevent self-excision of NS3 from the fusion protein, allowing the ZF and effector domains to remain locally coupled and retaining synTF functionality.
In the presence of a small molecule, the NS3 protease activity is inhibited and the fusion protein complex is stabilized, permitting the transcription factor to regulate expression of an output gene from a responsive promoter (see e.g., FIG. 5A-5C).
Output fluorescence was measured as a function of several different grazoprevir treatment concentrations as indicated (dose response) (see e.g., FIG. 9A).

ZF-responsive promoter [5] = assay: Grazoprevir-inducible transcriptional repression of a fluorescent protein, HEK293 and Jurkat; type: cell-based, human; conditions: compared to untreated
ZF-responsive promoter [6] = assay: Inducible activation of CD19-CAR in CD4+ primary human T cells; type: cell-based
From the text: (§1) Output fluorescence as a function of several different grazoprevir treatment concentrations is also indicated here. […] Cytokine production as a function of several different grazoprevir treatment concentrations is also indicated here (see e.g., FIG. 13A-13D).
(§2) Inducible synTFs can regulate […] expression in primary cells. The grazoprevir-inducible synTF was used to control expression of a CD19-CAR in primary CD4+ cells. […] Such results highlight that the ability to reliably control expression of outputs from therapeutic, thus controlling their functionalities in increasingly complex settings (see e.g., FIG. 13A-13D).

[7] = system: CD19 antigen-presenting target cells; assay: Co-culture of induced CD19-CAR primary T cells with CD19 antigen-presenting target cells, cytokine production; type: cell-based, human
From the text: as §1, §2

ZF-responsive promoter [8] = assay: Dual-drug regulated IL4 and CD19-CAR expression in CD4+ primary human T cells; type: cell-based
From the text: (see e.g., FIG. 14A-14B).

ZF-responsive promoter [9] = assay: Inducible activation of IL10 in Jurkat T cell lines, double or single lentiviral vector; type: cell-based, human; conditions: 1 uM GZV for 2 days
From the text: This inducible activation can be achieved through the delivery of separate lentiviral cassettes for NS3-synTF expression and IL10 production (“double lentiviral vector”), or through the delivery of a single lentiviral cassette expressing the NS3-synTF as well as regulating IL10 production (see e.g., FIG. 15A-15C).
A single lentiviral vector was engineered that was capable of expressing a grazoprevir-inducible synTF that would in turn regulate expression of IL-10. The size of this entire insert including expression elements was 3.5 kB, which is minimal and […] the total payload packaging limits of certain vectors.

ZF-responsive promoter [10] = assay: Activation and tunable deactivation of a fluorescent protein using ERT2 and SMASh domains, Jurkat; type: cell-based, human
Method: Inducible synthetic transcriptional activation and tunable deactivation of a fluorescent protein in human cell lines using ERT2 and SMASh domains: Three Jurkat T cell lines were tested: (1) ZF-p65-ERT2 (no SMASh, see e.g., FIG. 4); (2) ZF-p65-ERT2-SMASh (C-terminal SMASh); and (3) SMASh-ZF-p65-ERT2 (N-terminal SMASh) (see e.g., FIG. 16A). […] Absence of a SMASh-responsive small molecule (grazoprevir) for 12 days led to equivalent, slow deactivation of the reporter to baseline levels. […] This rapid deactivation of the reporter was compared to the condition lacking the SMASh domain, which led to equivalent slow deactivation as in the “absence of grazoprevir” condition (see e.g., FIG. 16B).

ZF-responsive promoter [11] = assay: Tunable activation of a fluorescent protein by co-administered 4OHT and GZV, ERT2 and SMASh domains, Jurkat; type: cell-based, human; conditions: co-administration of varying 4OHT and GZV for 4 days
Method: Tunable synthetic transcriptional activation of a fluorescent protein in human cell lines using ERT2 and SMASh domains: Two Jurkat T cell lines were tested: (1) ZF-p65-ERT2-SMASh (C-terminal SMASh) and (2) SMASh-ZF-p65-ERT2 (N-terminal SMASh).

[12] = commonly taken at 100 mg/day for up to 12 weeks; cited from earlier work
ZF-responsive promoter [13] = assay: 4OHT-inducible transcriptional activation of a fluorescent protein using ERT2 domain, Jurkat; type: cell-based, human
From the text: ERT2 nuclear translocation domain, which is responsive to a small molecule (4-hydroxytamoxifen=4OHT), can be used to regulate a synTF as described herein (see e.g., Indra et al. Nucleic Acids Res (1999)). The human estrogen receptor (ER) contains a ligand responsive domain that, when fused to other protein domains, can yield ligand-dependent control over activity. The domain naturally associates with cytoplasmic factors in the cell in the absence of cognate ligands, effectively sequestering itself in the cytoplasm. Binding of cognate ligands, such as estrogen or other steroid hormone derivatives, cause a conformational change to the receptor that allow dissociation from the cytoplasmic complexes and expose a nuclear localization signal, permitting translocation into the nucleus.
Subsequently, the administration of 4OHT can allow conditional nuclear translocation of the synTF, allowing synTF functionality in the cellular nucleus (see e.g., FIG. 4).
Output fluorescence was measured as a function of several different 4OHT treatment concentrations as indicated (dose response; see e.g., FIG. 8A).

ZF-responsive promoter [14] = assay: Inducible repression of a fluorescent protein using ERT2 and SMASh domains, Jurkat; type: cell-based, human; conditions: 6 days; KRAB-, HP1a-, EED-ZF-ERT2-SMASh lines
Method: Inducible synthetic transcriptional repression of a fluorescent protein in human cell lines using […] domains: Three Jurkat T cell lines were tested: (1) KRAB-[…] (3) […]. […] Absence of a SMASh-responsive small molecule (GZV) in the negative control led to significant “leaky” repression in the absence of 4OHT (see e.g., FIG. 18).

[15] = compared to untreated cell line

SMILES: CC1=CC(=O)CC(C)(C)[C@@]1(O)/C=C/C(C)=C\C(=O)O [ABA, abscisic acid]
fluorescent protein output on administration of small molecule (ZF-responsive promoter [1]; [15]): temporal activation of a fluorescent protein output
fluorescent protein output on removal of small molecule (ZF-responsive promoter [1]; removal after four days): temporal de-activation of a fluorescent protein output
fluorescent protein output on administration of small molecule (ZF-responsive promoter [2]): temporal activation of a fluorescent protein output
fluorescent protein output, synTF with repressor effector domain (ZF-responsive promoter [3]): temporal silencing of a fluorescent protein output

CD19-CAR fold induction (ZF-responsive promoter [6]; day 3, highest concentration): strong fold induction
SMILES: C=C[C@@H]1C[C@]1(NC(=O)[C@@H]1C[C@@H]2CN1C(=O)[C@H](C(C)(C)C)NC(=O)O[C@@H]1C[C@H]1CCCCCc1nc3ccc(OC)cc3nc1O2)C(=O)NS(=O)(=O)C1CC1 [grazoprevir]
fluorescent protein output on administration of small molecule (ZF-responsive promoter [4]; [15]): temporal activation of a fluorescent protein output
fluorescent protein output on removal of small molecule (ZF-responsive promoter [4]; removal after four days): temporal de-activation of a fluorescent protein output
fluorescent protein output on administration of small molecule (ZF-responsive promoter [2]): temporal activation of a fluorescent protein output
fluorescent protein output, synTF with repressor effector domain (ZF-responsive promoter [3]): temporal silencing of a fluorescent protein output
fluorescent protein output, synTF with repressor effector domain (ZF-responsive promoter [5]): temporal silencing of a fluorescent protein output
CD19-CAR expression (ZF-responsive promoter [6]; CD4+ primary human T cells, several grazoprevir concentrations over time): temporal activation of a fluorescently-tagged chimeric antigen receptor (CD19-CAR) protein; also recorded: dose-dependent expression of synTF
T-cell activation, cytokine production (IFNgamma, IL-2) [7]: T-cell activation, measured by enhanced production of cytokines; also recorded: dose-dependent production of IFNgamma and IL-2 cytokines
CD19-CAR expression in dual-drug context (ZF-responsive promoter [8]; orthogonal ZF-responsive promoter): regulated activation of a fluorescently-tagged chimeric antigen receptor (CD19-CAR) protein
IL10 expression (ZF-responsive promoter [9]): temporal activation of a cytokine (IL10); also recorded: strong induced expression of IL-10
reporter deactivation with SMASh-responsive small molecule (ZF-responsive promoter [10]; grazoprevir for 12 days after 4OHT removal): fast deactivation of the reporter to the baseline levels
level of fluorescent protein activation (ZF-responsive promoter [11]): little-to-no activation
safety profile [12]: exceptional safety profile

SMILES: CC/C(=C(\c1ccc(O)cc1)c1ccc(OCCN(C)C)cc1)c1ccccc1 [4OHT, 4-hydroxytamoxifen]
fluorescent protein output on administration of small molecule (ZF-responsive promoter [13]; [15]): temporal activation of a fluorescent protein output
fluorescent protein output on removal of small molecule (ZF-responsive promoter [13]; removal after four days): temporal de-activation of a fluorescent protein output
fluorescent protein output on administration of small molecule (ZF-responsive promoter [2]): temporal activation of a fluorescent protein output
fluorescent protein output, synTF with repressor effector domain (ZF-responsive promoter [3]): temporal silencing of a fluorescent protein output
IL4 expression (ZF-responsive promoter [8]; ERT2-synTF): expression and secretion of IL4 cytokine
fluorescent protein on administration of 4OHT (ZF-responsive promoter [10]; 4 days, all three Jurkat lines): temporal activation of a fluorescent protein
fluorescent protein on removal of 4OHT (ZF-responsive promoter [10]; removal from days 6-16, all cell lines): temporal deactivation of the fluorescent protein
level of fluorescent protein activation (ZF-responsive promoter [11]): maximal activation
fluorescent protein on administration of 4OHT, repressor synTFs (ZF-responsive promoter [14]): temporal repression of a fluorescent protein
